Results reported in patent publication US7126027B2, “N-[(1-dimethylaminocycloalkyl)methyl]benzamide derivatives” (Akzo Nobel N.V., priority 2002, dated 2006).

Columns and labels:
[1] = system: rats; test: Chung model of neuropathy (L5 spinal nerve ligation, von Frey withdrawal threshold); type: in vivo, rat; settings: twenty minutes after subcutaneous injection; Example 2 20 mg/kg, morphine sulphate 2 mg/kg, gabapentin 50 mg/kg; post-surgery pre-drug 0.8±0.1 g
[2] = target: T1, hGlyT-2 (Homo sapiens, UniProt Q9Y345); test: Glycine uptake assay, CHO cells stably transfected with hGlyT-2; type: cell-based; settings: [3H]-glycine 30 μM, 37° C., 10 minutes, read-out: Inhibition of glycine transport by hGlyT-2 IC50
T1 construct: expressed in transfected cells
T1 sequence (Q9Y345 1-797): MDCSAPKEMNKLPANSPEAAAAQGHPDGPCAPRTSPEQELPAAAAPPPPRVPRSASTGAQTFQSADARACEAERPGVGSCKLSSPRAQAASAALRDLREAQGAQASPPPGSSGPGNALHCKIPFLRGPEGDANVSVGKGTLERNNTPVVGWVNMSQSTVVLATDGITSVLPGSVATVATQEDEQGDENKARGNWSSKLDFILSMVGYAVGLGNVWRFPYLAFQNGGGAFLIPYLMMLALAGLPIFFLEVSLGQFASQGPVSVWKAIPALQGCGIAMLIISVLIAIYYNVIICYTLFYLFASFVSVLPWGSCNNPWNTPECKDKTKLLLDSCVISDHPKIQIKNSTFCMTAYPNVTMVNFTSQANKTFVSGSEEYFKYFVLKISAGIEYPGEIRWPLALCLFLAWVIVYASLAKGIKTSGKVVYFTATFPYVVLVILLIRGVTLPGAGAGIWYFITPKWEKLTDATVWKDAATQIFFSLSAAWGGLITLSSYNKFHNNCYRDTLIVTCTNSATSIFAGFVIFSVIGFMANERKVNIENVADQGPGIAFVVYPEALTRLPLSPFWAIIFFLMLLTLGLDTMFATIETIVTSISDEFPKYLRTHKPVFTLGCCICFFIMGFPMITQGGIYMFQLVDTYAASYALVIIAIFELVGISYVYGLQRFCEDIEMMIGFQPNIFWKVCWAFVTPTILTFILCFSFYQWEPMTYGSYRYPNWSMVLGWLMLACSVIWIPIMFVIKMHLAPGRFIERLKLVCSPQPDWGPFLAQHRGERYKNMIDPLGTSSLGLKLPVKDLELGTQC
Method: Glycine uptake assays were performed as described by Morrow et al. (FEBS Lett. 1998, 439, 334–340) using CHO cells stably transfected with either hGlyT-1b or hGlyT-2. Cells were grown in 96 well microtitre plates (30,000 cells/well) for 24–48 hours before removal of culture medium and addition of Hanks Balanced Salt Solution (HBSS) containing [^3H]-glycine (30 μM) and varying concentrations of test compounds. Plates were incubated at 37° C. for 10 minutes and uptake terminated by washing three times with ice-cold HBSS. After removal of excess liquid, scintillation cocktail was added to each well, prior to counting in a plate counter. Data were analysed using the GraphPad Prism™ analysis package and the sigmoid dose-response curve fitting option to produce IC50 (the concentration of test compound producing 50% inhibition of uptake) values.

SMILES	Withdrawal threshold [1] [g]	IC50 [2] [nM]
COc1cc(C(=O)NCC2(N(C)C)CCCC2)cc(OC)c1OCc1ccccc1 [Example 2, 4-Benzyloxy-3,5-dimethoxy-N-[1-(dimethylaminocyclopentyl)methyl]benzamide]	4.7 ± 1.15	–
COc1cc(C(=O)NCC2(N(C)C)CCCCC2)cc(OC)c1OCc1ccccc1 [Example 5, 4-Benzyloxy-3,5-dimethoxy-N-[(1-dimethylaminocyclohexyl)methyl]benzamide]	–	84
CCCCOc1c(OC)cc(C(=O)NCC2(N(C)C)CCCC2)cc1OC [Example 7, 4-n-Butyloxy-3,5-dimethoxy-N-[(1-dimethylaminocyclopentyl)methyl]benzamide]	–	77
Cc1cc(C(=O)NCC2(N(C)C)CCC2)cc(C)c1OCc1ccccc1 [Example 8, 4-Benzyloxy-3,5-dimethyl-N-[1-(dimethylaminocyclobutyl)methyl]benzamide]	–	16
Cc1cc(C(=O)NCC2(N(C)C)CCCC2)cc(C)c1OCc1ccccc1 [Example 9, 4-Benzyloxy-3,5-dimethyl-N-[(1-dimethylaminocyclopentyl)methyl]benzamide]	–	27
COc1cc(C(=O)NCC2(N(C)C)CCCC2)cc(OC)c1OCc1ccc(C)cc1 [Example 10, 3,5-Dimethoxy-4-(4-methylbenzyloxy)-N-[(1-dimethylaminocyclopentyl)methyl]benzamide]	–	30
COc1cc(C(=O)NCC2(N(C)C)CCCC2)cc(OC)c1OC(C)c1ccccc1 (stereo not drawn) [Example 11, 3,5-Dimethoxy-4-(1-phenyl)ethoxy-N-[1-(dimethylaminocyclopentyl)methyl]benzamide]	–	35
COc1cc(C(=O)NCC2(N(C)C)CCCC2)cc(OC)c1OCc1ccc(Cl)cc1 [Example 12, 4-(4-Chloro)benzyloxy-3,5-dimethoxy-N-[1-(dimethylaminocyclopentyl)methyl]benzamide]	–	44
COc1cc(C(=O)NCC2(N(C)C)CCCCC2)cc(OC)c1OCC1CCCCC1 [Example 13, 4-(Cyclohexylmethoxy)-3,5-dimethoxy-N-[(1-dimethylaminocyclohexyl)methyl]benzamide]	–	71
COc1cc(C(=O)NCC2(N(C)C)CCCC2)cc(OC)c1OCc1ccc(C(F)(F)F)cc1 [Example 14, 3,5-Dimethoxy-4-(4-trifluoromethylbenzyloxy)-N-[(1-dimethylaminocyclopentyl)methyl]benzamide]	–	76
COc1cc(C(=O)NCC2(N(C)C)CCCC2)cc(OC)c1OCC(C)C [Example 15, 3,5-Dimethoxy-4-(2-methylpropoxy)-N-[(1-dimethylaminocyclopentyl)methyl]benzamide]	–	79
Cc1cc(C(=O)NCC2(N(C)C)CCCCCC2)cc(C)c1OCc1ccccc1 [Example 16, 4-Benzyloxy-3,5-dimethyl-N-[(1-dimethylaminocycloheptyl)methyl]benzamide]	–	92
COc1cc(C(=O)NCC2(N(C)C)CCCC2)cc(OC)c1OCCc1ccccc1 [Example 18, 3,5-Dimethoxy-4-(2-phenylethoxy)-N-[(1-dimethylaminocyclopentyl)methyl]benzamide]	–	156
COc1cc(C(=O)NCC2(N(C)C)CCCC2)cc(OC)c1OCc1cccc2ccccc12 [Example 19, 3,5-Dimethoxy-4-(1-naphthyl)methoxy-N-[(1-dimethylaminocyclopentyl)methyl]benzamide]	–	215
Cc1cc(C(=O)NCC2(N(C)C)CCCC2)cc(C)c1OCc1ccsc1 [Example 20, 3,5-Dimethyl-4-(3-thienyl)methoxy-N-[(1-dimethylaminocyclopentyl)methyl]benzamide]	–	32
COc1cc(C(=O)NCC2(N(C)C)CCCC2)cc(OC)c1OC1CCCC1 [Example 21, 4-Cyclopentyloxy-3,5-dimethoxy-N-[(1-dimethylaminocyclopentyl)methyl]benzamide]	–	329
NCC1(CC(=O)O)CCCCC1 [gabapentin]	3.2 ± 1.5	–
CN1CC[C@]23c4c5ccc(O)c4O[C@H]2[C@@H](O)C=C[C@H]3[C@H]1C5.O=S(=O)(O)O [morphine, morphine sulphate]	4.2 ± 1.5	–
